# Experimental data reported in patent US20070027201A1 (Wyeth, priority 2005, published 2007).
# Target: T1, progesterone receptor (Homo sapiens, UniProt P06401)
# T1 sequence (P06401 1-933): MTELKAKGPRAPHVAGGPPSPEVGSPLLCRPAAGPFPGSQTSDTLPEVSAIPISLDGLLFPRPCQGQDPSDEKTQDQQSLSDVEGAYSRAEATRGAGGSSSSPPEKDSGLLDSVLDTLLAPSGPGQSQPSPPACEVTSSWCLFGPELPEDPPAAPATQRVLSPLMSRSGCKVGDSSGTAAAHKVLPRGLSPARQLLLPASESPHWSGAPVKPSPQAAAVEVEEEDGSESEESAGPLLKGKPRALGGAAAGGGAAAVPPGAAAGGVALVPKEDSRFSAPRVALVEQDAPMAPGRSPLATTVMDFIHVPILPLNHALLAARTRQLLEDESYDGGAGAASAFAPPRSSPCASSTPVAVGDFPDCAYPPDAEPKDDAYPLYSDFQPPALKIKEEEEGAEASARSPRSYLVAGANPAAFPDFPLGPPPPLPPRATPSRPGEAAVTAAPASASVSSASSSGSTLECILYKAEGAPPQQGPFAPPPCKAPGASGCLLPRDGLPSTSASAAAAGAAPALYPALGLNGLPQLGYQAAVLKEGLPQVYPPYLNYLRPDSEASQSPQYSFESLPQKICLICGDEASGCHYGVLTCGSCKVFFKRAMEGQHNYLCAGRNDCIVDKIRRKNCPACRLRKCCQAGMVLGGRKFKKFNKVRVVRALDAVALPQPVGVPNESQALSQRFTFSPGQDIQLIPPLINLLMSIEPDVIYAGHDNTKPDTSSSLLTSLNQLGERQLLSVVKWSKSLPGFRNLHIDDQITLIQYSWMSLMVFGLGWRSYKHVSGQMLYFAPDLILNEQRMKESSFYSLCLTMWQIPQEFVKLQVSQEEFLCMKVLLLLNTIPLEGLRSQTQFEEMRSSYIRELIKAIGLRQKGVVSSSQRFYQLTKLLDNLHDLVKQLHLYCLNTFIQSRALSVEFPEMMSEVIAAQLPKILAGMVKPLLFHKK
# Assay: T47D alkaline phosphatase assay for progesterone receptor modulator (antagonist) activity
# Format: cell-based
# Design: endogenous in cells; host or cells: T47D cells
# Conditions: T47D cells
# Method: An assay was performed to identify compounds having progesterone receptor modulator activity. This assay identifies progestins or antiprogestins by determining a compound's effect on alkaline phosphatase activity in T47D cells.
# Culture medium: DMEM:F12 (1:1) (GIBCO, BRL) supplemented with 5% (v/v) charcoal stripped fetal bovine serum (not heat-inactivated), 100 U/mL penicillin, 100 μg/mL streptomycin, and 2 mM the GlutaMax® reagent (GIBCO, BRL).
# Alkaline phosphatase assay buffer: • I. 0.1M Tris-HCl, pH 9.8, containing 0.2% the Triton™ X-100 reagent • II. 0.1M Tris-HCl, pH 9.8, containing 4 mM p-nitrophenyl phosphate (Sigma).
# Frozen T47D cells are thawed in a 37° C. water bath and diluted to 280,000 cells/mL in culture medium. To each well in a 96-well plate (Falcon, Becton Dickinson Labware), 180 μL of diluted cell suspension is added.
# Twenty μL of reference or test compounds diluted in the culture medium is then added to each well. When testing for progestin antagonist activity, reference antiprogestins or test compounds are added in the presence of 1 nM progesterone. The cells are incubated at 37° C. in a 5% CO2/humidified atmosphere for 24 hours.
# For high throughput screening, one concentration of each compound will be tested at 0.3 μg/mL. Based on an average molecular weight of 300 g/mol for the compounds in the library, the concentration is approximately 1 μM. Subsequently, active compounds will be tested in dose response assays to determine EC50 and IC50.
# At the end of treatment, the medium is removed from the plate. Fifty μL of assay buffer I is added to each well. The plates are shaken in a titer plate shaker for 15 minutes. Then 150 μL of assay buffer II is added to each well. Optical density measurements are taken at 5 minute intervals for 30 minutes at a test wavelength of 405 nm.
# Analysis of dose-response data. For reference and test compounds, a dose response curve is generated for dose (x-axis) vs. the rate of enzyme reaction (slope) (y-axis). Square root-transformed data are used for analysis of variance and nonlinear dose response curve fitting for both agonist and antagonist modes. Huber weighting is used to down-weight the effects of outliers. EC50 or IC50 values are calculated from the retransformed values. The JMP® software (SAS Institute, Inc.) is used for both one-way analysis of variance and non-linear dose response analysis in both single dose and dose response studies.
# Progesterone and trimegestone are reference progestins and RU486 is the reference antiprogestin. All reference compounds are run in full dose response curves and the EC50 and IC50 values are calculated.
# In the table provided above, the IC50 values show the relative progesterone receptor antagonist activity in this assay. Lower numbers are indicative of higher potency, i.e., greater PR antagonist activity. Further, the assay has a standard deviation of about ±6.
row,Active Dose [µM],Structure (SMILES)
1,10,"Cn1c(C#N)ccc1-c1ccc(NS(C)(=O)=O)cc1F [Example 40, N-[4-(5-cyano-1-methyl-1H-pyrrol-2-yl)-3-fluorophenyl]methanesulfonamide]"
2,3,"CCS(=O)(=O)Nc1ccc(-c2ccc(C#N)n2CCCc2ccccc2)cc1 [Example 71, N-{4-[5-cyano-1-(3-phenylpropyl)-1H-pyrrol-2-yl]phenyl}ethanesulfonamide]"
3,10,"Cn1c(C#N)ccc1-c1cc(F)c(NS(C)(=O)=O)cc1F [Example 46, N-[4-(5-cyano-1-methyl-1H-pyrrol-2-yl)-2,5-difluorophenyl]-methane-sulfonamide]"
4,10,"CC(C)S(=O)(=O)Nc1ccc(-c2ccc(C#N)n2C)c(F)c1 [Example 44, N-[4-(5-cyano-1-methyl-1H-pyrrol-2-yl)-3-fluorophenyl]propane-2-sulfonamide]"

# Same assay, conditions: T47D cells, antagonist mode in the presence of 1 nM progesterone, 24 hours
row,IC50 [nM],Structure (SMILES)
1,68.6,"CCS(=O)(=O)Nc1ccc(-c2ccc(C#N)[nH]2)cc1 [Example 65, N-[4-(5-cyano-1H-pyrrol-2-yl)phenyl]ethanesulfonamide]"
2,< 300,COc1cc(-c2ccc(C#N)n2C)ccc1NC#N [Example 35]
3,32.2,"Cn1c(C#N)ccc1-c1ccc(NS(C)(=O)=O)c(OC(F)(F)F)c1 [Example 59, N-[4-(5-cyano-1-methyl-1H-pyrrol-2-yl)-2-(trifluoromethoxy)phenyl]methane-sulfonamide]"
4,53.7,"CCCCS(=O)(=O)Nc1ccc(-c2ccc(C#N)n2C)c(C(F)(F)F)c1 [Example 55, N-[4-(5-cyano-1-methyl-1H-pyrrol-2-yl)-3-(trifluoromethyl)phenyl]butane-1-sulfonamide]"
5,267,"CCCCS(=O)(=O)Nc1cc(F)c(-c2ccc(C#N)n2C)cc1F [Example 49, N-[4-(5-cyano-1-methyl-1H-pyrrol-2-yl)-2,5-difluorophenyl]butane-1-sulfonamide]"
6,1.5,"CC(C)S(=O)(=O)Nc1ccc(-c2ccc(C#N)n2C)cc1 [Example 23, N-[4-(5-cyano-1-methyl-1H-pyrrol-2-yl)phenyl]propane-2-sulfonamide]"
7,~3000,"Cc1ccc(S(=O)(=O)Nc2ccc(-c3ccc(C#N)n3C)cc2)cc1 [Example 22, N-[4-(5-cyano-1-methyl-1H-pyrrol-2-yl)phenyl]-4-methylbenzenesulfonamide]"
8,10.2,"CCS(=O)(=O)Nc1ccc(-c2ccc(C#N)n2C)c(C(F)(F)F)c1 [Example 53, N-[4-(5-cyano-1-methyl-1H-pyrrol-2-yl)-3-(trifluoromethyl)phenyl]ethane-sulfonamide]"
9,18.3,"Cn1c(C#N)ccc1-c1ccc(NS(C)(=O)=O)cc1F [Example 40, N-[4-(5-cyano-1-methyl-1H-pyrrol-2-yl)-3-fluorophenyl]methanesulfonamide]"
10,97.2,"C=C(C)C(=O)Nc1ccc(-c2ccc(C#N)n2C)cc1 [Example 12, N-[4-(5-cyano-1-methyl-1H-pyrrol-2-yl)phenyl]-2-methylacrylamide]"
11,109,"Cn1c(C#N)ccc1-c1ccc(N)cc1 [Example 1, 5-(4-aminophenyl)-1-methyl-1H-pyrrole-2-carbonitrile]"
12,40.7,"CCCS(=O)(=O)Nc1ccc(-c2ccc(C#N)n2C)cc1OC(F)(F)F [Example 61, N-[4-(5-cyano-1-methyl-1H-pyrrol-2-yl)-2-(trifluoromethoxy)phenyl]propane-1-sulfonamide]"
13,90.5,"Cn1c(C#N)ccc1-c1ccc(NC(=O)c2ccccc2)cc1 [Example 9, N-[4-(5-cyano-1-methyl-1H-pyrrol-2-yl)phenyl]benzamide]"
14,126,"Cn1c(C#N)ccc1-c1ccc(NC(=O)c2ccco2)cc1 [Example 3, N-[4-(5-cyano-1-methyl-1H-pyrrol-2-yl)phenyl]-2-furamide]"
15,39.8,"Cn1c(C#N)ccc1-c1cc(F)c(NS(C)(=O)=O)cc1F [Example 46, N-[4-(5-cyano-1-methyl-1H-pyrrol-2-yl)-2,5-difluorophenyl]-methane-sulfonamide]"
16,~300,"CCc1cc(-c2ccc(C#N)n2C)ccc1NC#N [Example 30, [4-(5-cyano-1-methyl-1H-pyrrol-2-yl)-2-ethylphenyl]cyanamide]"

row,IC50 [nM],Structure (SMILES)
1,670,"Cn1c(C#N)ccc1-c1ccc(NC#N)c(F)c1 [Example 34, [4-(5-cyano-1-methyl-1H-pyrrol-2-yl)-2-fluorophenyl]cyanamide]"
2,6.6,"CCCCS(=O)(=O)Nc1ccc(-c2ccc(C#N)n2C)c(F)c1 [Example 43, N-[4-(5-cyano-1-methyl-1H-pyrrol-2-yl)-3-fluorophenyl]butane-1-sulfonamide]"
3,231,"CC(C)S(=O)(=O)Nc1cc(F)c(-c2ccc(C#N)n2C)cc1F [Example 50, N-[4-(5-cyano-1-methyl-1H-pyrrol-2-yl)-2,5-difluorophenyl]propane-2-sulfonamide]"
4,78.8,"CCCC(=O)Nc1ccc(-c2ccc(C#N)n2C)cc1 [Example 7, N-[4-(5-cyano-1-methyl-1H-pyrrol-2-yl)phenyl]butanamide]"
5,3.5,"CCCS(=O)(=O)Nc1ccc(-c2ccc(C#N)n2C)c(F)c1 [Example 42, N-[4-(5-cyano-1-methyl-1H-pyrrol-2-yl)-3-fluorophenyl]propane-1-sulfonamide]"
6,9.3,"CC(C)S(=O)(=O)Nc1ccc(-c2ccc(C#N)n2C)c(F)c1 [Example 44, N-[4-(5-cyano-1-methyl-1H-pyrrol-2-yl)-3-fluorophenyl]propane-2-sulfonamide]"
7,25.2,"CC(C)S(=O)(=O)Nc1ccc(-c2ccc(C#N)n2C)c(C(F)(F)F)c1 [Example 56, N-[4-(5-cyano-1-methyl-1H-pyrrol-2-yl)-3-(trifluoromethyl)phenyl]propane-2-sulfonamide]"
8,84.1,"CCn1c(C#N)ccc1-c1ccc(NS(=O)(=O)CC)cc1 [Example 66, N-[4-(5-cyano-1-ethyl-1H-pyrrol-2-yl)phenyl]ethanesulfonamide]"
9,10,"CCS(=O)(=O)Nc1ccc(-c2ccc(C#N)n2C)cc1 [Example 24, N-[4-(5-cyano-1-methyl-1H-pyrrol-2-yl)phenyl]ethanesulfonamide]"
10,9.4,"CCCS(=O)(=O)Nc1ccc(-c2ccc(C#N)n2C)c(C(F)(F)F)c1 [Example 54, N-[4-(5-cyano-1-methyl-1H-pyrrol-2-yl)-3-(trifluoromethyl)phenyl]propane-1-sulfonamide]"
11,83.9,"Cn1c(C#N)ccc1-c1ccc(NC(=O)C2CCC2)cc1 [Example 10, N-[4-(5-cyano-1-methyl-1H-pyrrol-2-yl)phenyl]cyclobutane-carboxamide]"
12,378,"CC(C)COC(=O)Nc1ccc(-c2ccc(C#N)n2C)cc1 [Example 14, Isobutyl[4-(5-cyano-1-methyl-1H-pyrrol-2-yl)phenyl]carbamate]"
13,266,"CCOC(=O)Nc1ccc(-c2ccc(C#N)n2C)cc1 [Example 13, Ethyl[4-(5-cyano-1-methyl-1H-pyrrol-2-yl)phenyl]carbamate]"
14,124,"CCS(=O)(=O)Nc1ccc(-c2ccc(C#N)n2C)c(C#N)c1 [Example 75, N-[3-cyano-4-(5-cyano-1-methyl-1H-pyrrol-2-yl)phenyl]ethanesulfonamide]"
15,546,"CCCCn1c(C#N)ccc1-c1ccc(NS(=O)(=O)CC)cc1 [Example 68, N-[4-(1-butyl-5-cyano-1H-pyrrol-2-yl)phenyl]ethanesulfonamide]"

# Same assay, conditions: T47D cells, at Active Dose 3000 nM
row,inhibition at 3 µM [%],Structure (SMILES)
1,15,"CCS(=O)(=O)Nc1ccc(-c2ccc(C#N)n2CCCc2ccccc2)cc1 [Example 71, N-{4-[5-cyano-1-(3-phenylpropyl)-1H-pyrrol-2-yl]phenyl}ethanesulfonamide]"

# Same assay, conditions: T47D cells, in the presence of 1 nM progesterone
row,Antagonist Efficacy [%],Structure (SMILES)
1,85,"CCS(=O)(=O)Nc1ccc(-c2ccc(C#N)[nH]2)cc1 [Example 65, N-[4-(5-cyano-1H-pyrrol-2-yl)phenyl]ethanesulfonamide]"
2,80,"CCn1c(C#N)ccc1-c1ccc(NS(=O)(=O)CC)cc1 [Example 66, N-[4-(5-cyano-1-ethyl-1H-pyrrol-2-yl)phenyl]ethanesulfonamide]"
